Measured values from patent US8906393B2, “Biofilm inhibiting composition” (Rutgers, The State University of New Jersey, priority 2011, dated 2014).

How the values were obtained:
[1] = system: S. aureus strain SH1000; assay: Biofilm inhibition assay (96-well microtiter plate crystal violet binding); type: cell-based, Staphylococcus aureus
Experimental: (§1) Biofilm inhibition assay. Biofilms were cultured in 96-well polystyrene microtiter plates as previously described. Briefly, cells were diluted to 104 to […] CFU/ml in TSB supplemented with 0.1 vol of PAM extract, or 0.1 vol of water as a control. Aliquots of cells (200 μl each) were transferred to the wells of a microtiter plate, and the plate was incubated at 37° C. for 18 h. Biofilms were washed with water and stained for 1 min with 200 μl of Gram's crystal violet. Stained biofilms were rinsed with water and dried. The amount of crystal violet binding was quantitated by destaining the biofilms for 10 min with 200 μl of 33% acetic acid, and then measuring the absorbance of the crystal violet solution at 595 nm. All assays were performed 3-5 times with similarly significant decreases in absorbance values.
Expressing the K. kingae pam genes in E. coli. Plasmids pGEM-T, pMB10, pMB5 and pMB9 were transformed into E. coli strain JM109. Transformants were selected on agar supplemented with 50 μg/ml ampicillin. Lawns of transformants were grown on agar plates supplemented with 50 μg/ml ampicillin and 1 mM IPTG. Lawns were harvested and cell-free extracts were prepared by ultracentrifugation as described above. Extracts were sterilized by passage through a 0.22-μm filter, incubated at 100° C. for 15 min, and then tested for activity in the biofilm inhibition assay described above.

[2] = system: K. pneumoniae; assay: Biofilm inhibition assay (96-well microtiter plate); type: cell-based, Klebsiella pneumoniae; settings: K. pneumoniae 1840; crystal violet
Experimental: as §1

[3] = system: K. kingae; assay: as above; type: cell-based, Kingella kingae; settings: K. kingae PYKK181; crystal violet
Experimental: as §1

Measured: biofilm-inhibiting activity of purified PAM galactan

→3)-β-D-Galf-(1→6)-β-D-Galf-(1→ [PAM galactan]
exhibited biofilm-inhibiting activity: all assays above
